Data from patent US4794103A, “Pharmaceutical compositions containing peptides of the cholecystokinin-cerulein group for the therapy of shock conditions and of respiratory and cardiocirculatory insufficiencies” (priority 1986, dated 1988).

System: female Wistar rats
Experiment: Hypovolemic shock produced by bleeding in anesthetized rats, intravenous bolus of the polypeptides
Format: in vivo, rat
Details: for MEAN ARTERIAL PRESSURE 15-30 min. After bleeding: mean ± S.E.
Experimental: Intact and adrenalectomized female Wistar rats (Nossan, Correzzano, Milano, Italy) weighing 250 to 300 g were used. Following anesthetization and heparinization a common carotid artery and an iliac vein were cannulated in rats. Arterial blood pressure was recorded by means of a pressure transducer (Statham P23 Db) connected to a polygraph (Battaglia-Rangoni, Bologna, Italy). […] Hypovolemic shock was produced by intermittently withdrawing blood from the venous catheter until mean arterial pressure fell to 10-25 mm Hg. […] Following bleeding and mean blood pressure stabilization in the range of 10-25 mm Hg, animals were given intravenous bolus of the polypeptides. Control animals were intravenously injected with the same volume of saline (0.1 ml/100 g).

Substance	No. of deaths 120 min. after treatment (5 μg/kg i.v. after bleeding, 6 rats used (saline: 12 of 12 died))	MEAN ARTERIAL PRESSURE 15-30 min. After bleeding (5 μg/kg i.v. after bleeding, 6 rats, before bleeding 71.17 ± 6.07, after bleeding 11.83 ± 0.79, P < 0.05 versus value after bleeding)	No. of deaths 120 min. after treatment (10 μg/kg i.v. after bleeding, 5 rats used (saline: 12 of 12 died))	MEAN ARTERIAL PRESSURE 15-30 min. After bleeding (10 μg/kg i.v. after bleeding, 5 rats, before bleeding 68.40 ± 4.98, after bleeding 14.00 ± 1.82, P < 0.01 versus value after bleeding)	No. of deaths 120 min. after treatment (20 μg/kg i.v. after bleeding, 5 rats used (saline: 12 of 12 died))	MEAN ARTERIAL PRESSURE 15-30 min. After bleeding (20 μg/kg i.v. after bleeding, 5 rats, before bleeding 72.00 ± 4.67, after bleeding 14.40 ± 0.87, P < 0.01 versus value after bleeding)	No. of deaths 120 min. after treatment (20 μg/kg i.v. after bleeding, 6 rats used (saline: 12 of 12 died))	MEAN ARTERIAL PRESSURE 15-30 min. After bleeding (20 μg/kg i.v. after bleeding, 6 rats, before bleeding 75.17 ± 6.62, after bleeding 12.17 ± 1.11, P < 0.01 versus value after bleeding)
CCK8	2	26.33 ± 7.05 mm Hg	0	41.80 ± 3.79 mm Hg	0	52.40 ± 2.73 mm Hg	–	–
cerulein	–	–	–	–	–	–	0	54.67 ± 4.29 mm Hg
